Assay results from PMC6278378, “Virtual Screening, Biological Evaluation, and 3D-QSAR Studies of New HIV-1 Entry Inhibitors That Function via the CD4 Primary Receptor” (Molecules, 2018).
“Also recorded” adds a separate entry of the source.

How the values were obtained:
[1] = test system: PBMCs; assay: PBMC viability assay (CellTiter-Blue); assay type: cell-based; conditions: up to 150 μM
Method: We employed a cell viability assay to test the potential cytotoxicity of 3. In parallel with the anti-HIV-1 assay described above, the same densities of PBMCs were seeded and treated with the test compounds for the same duration.
Blood samples were collected from healthy donors and diluted with an equal amount of 1× PBS. Approximately 15 mL Ficoll was transferred to a sterile 50 mL tube, and then overlaid with 15 mL diluted blood. After centrifugation (Centrifuge 5810R, Eppendorf, Hamburg, Germany) at 1800 rpm for 30 min at room temperature, the PBMCs were obtained and washed twice with 40 mL 1× PBS by centrifugation (1100 rpm, 10 min for each time) at room temperature. Cell pellets were resuspended in 50 mL RPMI 1640 supplemented with 10% FBS and 100 μg/mL Phytohemagglutinin (PHA, Sigma-Aldrich, St. Louis, MO, USA) and cultured for 24 h at 37 °C with 5% CO2. […]
In addition to the anti-HIV assays described above, the same numbers of PBMCs were seeded and treated with the test compounds for the same periods. After a 24 h incubation at 37 °C, the cell viability was determined using the CellTiter-Blue (Promega Co., Madison, WI, USA) cell viability assay. The fluorescence (560EX/590EM) was recorded using a Synergy II microplate reader.

[2] = test system: HIV-1; parameters: method as in PMID 12207905; conditions: inactive or weakly active; cited from earlier work
[3] = test system: HIV-1 NL4-3 strain; assay: Anti-HIV-1 infection assay (CEM-GFP reporter cells, GFP fluorescence); assay type: cell-based; conditions: Human immunodeficiency virus 1, NL43, HIV-1 NL4-3, 4-5 days
From the text: We performed anti-HIV-1 infection and anti-HIV-1 entry assays by measuring GFP expression and intracellular p24 antigen level. For the anti-HIV-1 infection assays, the CEM-GFP reporter cell line was used, and HIV-1 infection induced a 10- to 1000-fold increase in the relative fluorescence of the cells.
The CEM-GFP cells were obtained from the NIH AIDS program (NIH AIDS Reagent Program, Division of AIDS, NIAID, NIH: CEM-GFP Cells from Dr. Jacques Corbeil) and cultured in RPMI 1640 medium containing 10% FBS, 1% penicillin-streptomycin (Life Technologies, Carlsbad, CA, USA), 1% 200 mM L-glutamine (Mediatech-VWR, Aurora, CO, USA), and 500 µg/mL G418 (BioPioneer Inc, San Diego, CA, USA). After collecting and counting, the CEM-GFP cells were infected with HIV-1 NL4-3 strain (MOI 0.01) at 37 °C for 2–3 h, cells were then washed twice with PBS, and 10^5 cells/well were seeded into a 96-well plate in the presence of different concentrations of test compounds. After culturing at 37 °C with 5% CO2 for 4 or 5 days, the GFP fluorescence (485EX/528EM) was measured using a Synergy II microplate reader (BioTek Instruments, Inc., Winooski, VT, USA).

[4] = target: T1, CD4 (Homo sapiens, UniProt P01730); assay: CD4 competitive binding assay (FITC anti-human CD4 antibody, SUP-T1 cells)
T1 construct: endogenous in cells; host or cells: SUP-T1 cells
Method: We chose CD4-expressing SUP-T1 cells to perform the competitive CD4 binding assay. Non-labeled anti-human CD4 antibody (RPA-T4 clone, BioLegend, San Diego, CA, USA) was used as a positive control.
The SUP-T1 cells were cultured in RPMI1640 medium supplemented with 10% (v/v) fetal bovine serum (FBS), 100 IU penicillin, 0.1 mg/mL streptomycin, and 2 mM L-glutamine. After collecting and washing twice with fluorescence activated cell sorting (FACS) buffer (0.5% BSA, 0.05% sodium azide in PBS) by centrifugation, SUP-T1 cells were seeded in a 96-well v-bottom plate at 5 × 10^5 cells/well. The supernatant was discarded by centrifugation and the cell pellet was resuspended with 50 μL various 2× concentrations of test compounds and 50 μL fluorescein isothiocyanate (FITC) labeled anti-human CD4 antibody (RPA-T4 clone, BioLegend, San Diego, CA, USA). The plate was incubated for 40 min on ice. After incubation, the cells were washed twice with FACS buffer by centrifugation, and then resuspended with the assay buffer. The FACS buffer was added at a volume of 50 μL per well. The fluorescence (485EX/528EM) was recorded using a Synergy II plate reader (BioTek Instruments, Inc., Winooski, VT, USA). Experimental data were generated in duplicate each time, and from at least three independent experiments. The mean values of fluorescence were normalized and expressed as a percentage of the control group values. Binding curves and IC50 values were calculated by GraphPad Prism 7 (GraphPad Software Inc., La Jolla, CA, USA) and presented as the mean ± SEM.

[5] = test system: various cancer cell lines; parameters: method as in PMID 26474275, PMID 22524450; conditions: 100 μM; by increasing intracellular ROS level; cited from earlier work
[6] = test system: HIV-1 (NL4-3 strain); assay: microbe, parasite or virus in culture; assay type: cell-based; conditions: Human immunodeficiency virus 1, NL43, PBMC; PBMCs, HIV-1 NL4-3, 24 h; read-out: IC50, HIV-1 entry inhibition (intracellular p24)
Method: We also performed anti-HIV-1 entry assays to investigate the potential suppression by 3 of HIV-1 infection via its entry mechanism.
The Anti-HIV-1 entry assay was performed by measuring intercellular p24 antigen. Before the infection, PBMCs (2.5 × 10^6 cells/mL) were added into 96-well plates at 100 μL/well, then co-incubated with compounds of various concentrations for 2 h. PBMCs were then washed twice with PBS and infected with the NL4-3 strain of HIV-1 at an MOI of 0.02 for 2 h at 37 °C with 5% CO2 (CO2 incubator, Eppendorf, Hamburg, Germany). After two washes with PBS (1200 rpm, 20 °C, 5 min), the cells were re-suspended in 100 µL complete medium and incubated for 24 h. Subsequently, the PBMCs were washed and resuspended in 100 µL/well lysis buffer containing 1% protease inhibitor cocktail (Sigma-Aldrich, St. Louis, MO, USA). The intercellular p24 antigen was measured according to the protocol provided with the HIV-1 ELISA kit (PerkinElmer Inc. Waltham, MA, USA).

[7] = test system: SUP-T1 cells; assay: SUP-T1 cell viability assay; assay type: cell-based; conditions: up to 200 μM
Method: We also performed a cell viability assay to test the potential cytotoxicity of 3. In parallel with the competitive CD4 binding assay described above, the same densities of SUP-T1 cells were seeded and treated with the test compounds for the same duration.

## O=C(O)CCc1c2ccc(=O)c(O)c-2oc2c(O)c(O)ccc12 [Compound 3, 3-(4,5,6-trihydroxy-3-oxo-3H-xanthen-9-yl) propanoic acid]
[1]
  Cytotoxicity in PBMCs: without a cytotoxicity effect; also recorded: no cytotoxicity; also recorded: did not show an ability to affect cell growth
[2]
  protection in anti-HIV-1 infection assay: 0–49%
[3]
  IC50: 10 µM
[4]; 100 μM, inhibition of anti-human CD4 antibody binding to SUP-T1 cells
  inhibition at 100 µM: 94.9%
[4]; SUP-T1 cells, anti-human CD4 antibody competition
  IC50: 45 µM
[4]; transformed from % inhibition at 100 μM, presented as -ln
  PInhibition (Experimental Data): 5.273
[5]
  growth inhibition of cancer cell lines: inhibit the growth
[6]
  IC50: 9 µM
[7]
  Cytotoxicity in SUP-T1 cell viability assay: no cytotoxicity
[7]; listed as NSC119915
  Cytotoxicity in SUP-T1 cell viability assay: not showing any cytotoxicity
